Laboratory results taken from PMC8591741 (ACS Medicinal Chemistry Letters, 2021).
“Also recorded” adds a separate entry of the source.

Columns and labels:
[1] = system: HCV gt1a replicon; experiment: HCV replicon assay, gt1a; format: cell-based, hepatitis C virus
[2] = system: HCV gt1b replicon; experiment: HCV replicon assay, gt1b; format: cell-based, hepatitis C virus; conditions: for potency against gt1b compared with daclatasvir (1), in words: vs 1

## COC(=O)N[C@H]1CCC[C@H]2CC[C@@H](c3ncc(-c4ccc(-c5ccc(-c6cnc([C@@H]7CCCN7C(=O)[C@@H](NC(=O)OC)C(C)C)[nH]6)cc5)cc4)[nH]3)N2C1=O [Compound 2]
[1]; vs 1
  potency decrease against gt1a compared with daclatasvir (1): ~221 fold
[2]
  potency against gt1b compared with daclatasvir (1), in words: decreased slightly

## COC(=O)N[C@H](C(=O)N1CCC[C@H]1c1ncc(-c2ccc(-c3ccc(-c4cnc([C@@H]5CC[C@H]6CCC[C@@H](NC(=O)OC)C(=O)N65)[nH]4)cc3)cc2)[nH]1)C(C)C [Compound 4]
[1]; vs 2
  gt1a potency regained compared with 2: ~27 fold
[2]; vs 2
  gt1b potency regained compared with 2: ~2 fold

## COC(=O)N[C@H]1CCC[C@@H]2CC[C@@H](c3ncc(-c4ccc(-c5ccc(-c6cnc([C@@H]7CCCN7C(=O)[C@@H](NC(=O)OC)C(C)C)[nH]6)cc5)cc4)[nH]3)N2C1=O [Compound 5]
[1]; vs daclatasvir (1)
  times less potent against gt1a than 1: ~6
[2]
  potency against gt1b compared with daclatasvir (1), in words: nearly equipotent; also recorded: essentially equipotent

## COC(=O)N[C@H](C(=O)N1CC2(C[C@H]1c1ncc(-c3ccc(-c4ccc(-c5cnc([C@@H]6CC[C@H]7CCC[C@H](N(C)C)C(=O)N76)[nH]5)cc4)cc3)[nH]1)OCCO2)C(C)C [Compound 13]
[1]; vs 5
  less potent than 5 against gt1a: 16 fold
